As a reminder, the half-life is the time in which the quantity being followed falls by half. By Ki is commonly meant the dissociation constant of the complex between target and ligand, obtained from inhibition or displacement. Higher therefore signals weaker binding.

Here are results for 19 compounds from publication PMC6750895 (Journal of Medicinal Chemistry, 2019).

“Also recorded” adds a separate entry of the source.

Details of data set [1]: method as in earlier work. Conditions: urine; cited from earlier work.
The conditions of data set [2]: spontaneous hydrolysis, physiological pH of 7.4; cited from earlier work.
A further data set has as its system IKZF3. Nature of the data set: Compound-mediated IKZF3 degradation in OPM-2 cells (western blot). Format: cell-based, human. Particulars: 24 h.
For the next data set, the target named is T1, MsCI4 (Magnetospirillum gryphiswaldense, UniProt A4TVL0).
T1 construct: made in house
T1 sequence (A4TVL0 1-124): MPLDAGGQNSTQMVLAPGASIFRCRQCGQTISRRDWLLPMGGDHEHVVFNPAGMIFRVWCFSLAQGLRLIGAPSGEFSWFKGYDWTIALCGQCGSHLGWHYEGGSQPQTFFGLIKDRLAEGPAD
The data set can be described thus: FRET-based binding assay with WT MsCI4. Particulars: for binding in the FRET assay (in words): WT MsCI4.

Data set [3] in a line: Solubility in water or bicarbonate buffer. Type of data set: physicochemical.

`O=C1CCC(NC(=O)c2ccccc2C(=O)O)C(=O)N1` (stereo not drawn) [CBG, α-(2-carboxybenzamido)glutarimide, reference compound]: the “share among urinary metabolites of thalidomide” value in data set [1] is about 30%.

As to `NC(=O)CCC(C(=O)O)N1C(=O)c2ccccc2C1=O` (stereo not shown) [2-phthalimidoglutaramic acid], the “share among urinary metabolites of thalidomide” value in data set [1] is about 50%.

On to `O=C1CCC(N2C(=O)c3ccccc3C2=O)C(=O)N1` (stereo not shown) [thalidomide], for which the half-life in data set [2] was 5.5 to 7.3 h.

Regarding `O=C(O)CCC(=O)NCc1ccc(COC(=O)NC2CC(=O)NC2=O)cc1` (stereo not shown) [12a, 4-((4-((((2,5-Dioxopyrrolidin-3-yl)carbamoyl)oxy)methyl)benzyl)amino)-4-oxobutanoic Acid], the “effect on IKZF3 levels / IKZF3 recruitment (in words)” value in the data set with IKZF3 is “abolished IKZF3 recruitment”.

As for `O=C1CC(NC(=O)c2cc([N+](=O)[O-])cc([N+](=O)[O-])c2)C(=O)N1` (stereo not shown) [7e, N-(2,5-Dioxopyrrolidin-3-yl)-3,5-dinitrobenzamide], the “binding in the FRET assay (in words)” value at MsCI4 is “binding was observed but could not be quantified; also recorded: affinity was decreased under the detectable levels of the FRET assay”.

Regarding `O=C1CC(NC(=O)OCc2ccccc2)C(=O)N1` (stereo not shown) [7d, Benzyl (2,5-Dioxopyrrolidin-3-yl)carbamate], in the data set with IKZF3 (100 μM), the “reduction of IKZF3 levels” value is given as “about 20%”. Further, the “effect on IKZF3 levels / IKZF3 recruitment (in words)” value in the data set with IKZF3 is on record as “significant effects”.

For `O=C1CC(N2C(=O)c3ccc([N+](=O)[O-])cc3C2=O)C(=O)N1` (stereo not shown) [4b, 2-(2,5-Dioxopyrrolidin-3-yl)-5-nitroisoindoline-1,3-dione], the “effect on IKZF3 levels / IKZF3 recruitment (in words)” value in the data set on IKZF3 is on record as “abolish IKZF3 recruitment”.

In turn, `N[C@H]1CC[C@@H](COC(=O)NC2CC(=O)NC2=O)CC1` (stereo partly shown) [16a] yielded a Ki on MsCI4 of 20 ± 2 µM. Besides, the “solubility in water (in words)” value in data set [3] is recorded as “water-soluble”.

The compound `NCc1ccc(COC(=O)NC2CCC(=O)NC2=O)cc1.O=C(O)C(F)(F)F` (stereo not shown) [11b, (4-((((2,6-Dioxopiperidin-3-yl)carbamoyl)oxy)methyl)phenyl)methanaminium 2,2,2-Trifluoroacetate] had a Ki on MsCI4 of 10 ± 0.8 µM. Moreover, the “solubility in water (in words)” value in data set [3] was “water-soluble”.

As to `O=C1CC(N2C(=O)c3cccc([N+](=O)[O-])c3C2=O)C(=O)N1` (stereo not shown) [4a, 2-(2,5-Dioxopyrrolidin-3-yl)-4-nitroisoindoline-1,3-dione], the “binding in the FRET assay (in words)” value on MsCI4 is “binding was observed but could not be quantified”. In addition, the “effect on IKZF3 levels / IKZF3 recruitment (in words)” value in the data set on IKZF3 is listed as “abolish IKZF3 recruitment”.

Take `N[C@H]1CC[C@@H](COC(=O)NC2CCC(=O)NC2=O)CC1` (stereo partly shown) [16b]: the Ki at MsCI4 turned out to be 5 ± 0.5 µM. Moreover, the “solubility in water (in words)” value in data set [3] is on record as “water-soluble”.

`O=C1CC(NC(=O)Cc2ccccc2)C(=O)N1` (stereo not shown) [7b, N-(2,5-Dioxopyrrolidin-3-yl)-2-phenylacetamide]: the “binding in the FRET assay (in words)” value at MsCI4 is on record as “binding was observed but could not be quantified”. Besides, the “effect on IKZF3 levels / IKZF3 recruitment (in words)” value with IKZF3 was “abolished IKZF3 recruitment”.

For the compound `O=C1CCC(N2C(=O)c3ccc([N+](=O)[O-])cc3C2=O)C(=O)N1` (stereo not shown) [4d, 2-(2,6-Dioxopiperidin-3-yl)-5-nitroisoindoline-1,3-dione], the “effect on IKZF3 levels / IKZF3 recruitment (in words)” value with IKZF3 is listed as “abolish IKZF3 recruitment”.

Consider `CC(C)=CC(=O)NC1CC(=O)NC1=O` (stereo not shown) [7a, N-(2,5-Dioxopyrrolidin-3-yl)-3-methylbut-2-enamide], for which, on MsCI4, the “binding in the FRET assay (in words)” value was “binding was observed but could not be quantified”.

As to `O=C(/C=C/c1ccccc1)NC1CC(=O)NC1=O` (stereo not shown) [7f, N-(2,5-Dioxopyrrolidin-3-yl)cinnamamide], in the data set with IKZF3, the “effect on IKZF3 levels / IKZF3 recruitment (in words)” value is on record as “significant effects”.

Take `O=C1CCC(N2C(=O)c3cccc([N+](=O)[O-])c3C2=O)C(=O)N1` (stereo not shown) [4c, 2-(2,6-Dioxopiperidin-3-yl)-4-nitroisoindoline-1,3-dione]: the “binding in the FRET assay (in words)” value on MsCI4 is reported as “binding was observed but could not be quantified”. Further, the “effect on IKZF3 levels / IKZF3 recruitment (in words)” value in the data set with IKZF3 was “abolish IKZF3 recruitment”.

On to `Nc1cccc2c1C(=O)N(C1CC(=O)NC1=O)C2=O` (stereo not shown) [5a, 4-Amino-2-(2,5-dioxopyrrolidin-3-yl)isoindoline-1,3-dione], for which, on MsCI4, the “binding in the FRET assay (in words)” value was “binding was observed but could not be quantified”. Further, the “effect on IKZF3 levels / IKZF3 recruitment (in words)” value in the data set with IKZF3 is reported as “significant effects”.

Consider `NCc1ccc(COC(=O)NC2CC(=O)NC2=O)cc1.O=C(O)C(F)(F)F` (stereo not shown) [11a, (4-((((2,5-Dioxopyrrolidin-3-yl)carbamoyl)oxy)methyl)phenyl)methanaminium 2,2,2-Trifluoroacetate], for which the “effect on IKZF3 levels / IKZF3 recruitment (in words)” value in the data set with IKZF3 is on record as “abolished IKZF3 recruitment”. Moreover, the “solubility in water (in words)” value in data set [3] is reported as “water-soluble”.

With `O=C1CC(NC(=O)c2sc3ccccc3c2Cl)C(=O)N1` (stereo not shown) [7g, 3-Chloro-N-(2,5-dioxopyrrolidin-3-yl)benzo[b]thiophene-2-carboxamide], at MsCI4, the “binding in the FRET assay (in words)” value is on record as “binding was observed but could not be quantified”.
